One substance from US20050042283A1, “Histamine and CCK2/gastrin receptor blockade in the treatment of acid-peptic disease and cancer” (UNIVERSITY OF MASSACHUSETTS, priority 2003, published 2005) can be followed below.

The experiment has as its system Helicobacter felis. The experiment is described as follows: H. felis infection status (Warthin-Starry staining, IgG ELISA, real-time PCR). Type of experiment: in vivo. The conditions noted are these: quantitative real-time PCR; n=6. The source says:
The insulin-gastrin (INS-GAS) transgenic mice (FVB/N background) have been described previously (Wang, T. C. et al., 2000; Wang T. C. et al., 1993) and were free of specific pathogens. Animals were housed in microisolator, solid-bottomed polycarbonate cages, fed a commercially prepared pelleted diet, and given water ad libitum. One hundred twenty four (124) male INS-GAS mice at 2 or 3 months of age were inoculated with Helicobacter felis (ATCC 49179) as previously described (Wang, T. C. et al., 2000). Infection status was confirmed at 14 weeks and 26 weeks post inoculation by enzyme-linked immunosorbent assay (ELISA) to measure immunoglobulin IgG antibody to H. felis, and by quantitative real-time PCR assays of gastric corpus tissue at necropsy as described below. […]
At necropsy, linear strips extending from the squamocolumnar junction through the proximal duodenum were fixed in 10% neutral-buffered formalin, paraffin-embedded, cut at 5 microns, and stained with hematoxylin and eosin. Indices of injury in the gastric cardia/corpus and antrum were scored on an ordinal scale from 0 to 4 in increments of 0.5 by a single veterinary pathologist (A.B.R.) blinded to treatment groups. […]
Plasma gastrin levels (COOH-terminally amidated gastrin) were determined by radioimmunoassay using rabbit antiserum L2 that reacts similarly with G17 and […]. […]

Consider “1-methyl-5-((3-(3-(1-piperidinylmethyl)phenoxy)propyl)amino)-1H-1,2,4-triazole-3-ethanol [Loxtidine]”, for which the “H. felis DNA copy numbers per gastric corpus DNA (copy/μg) compared with non drug treated mice” value is on record as “no significant difference”.
